Assay results from patent US20200368338A1, “CONJUGATE OF WT1-DERIVED PEPTIDES AND COMPOSITION COMPRISING THE SAME” (SUMITOMO DAINIPPON PHARMA CO., LTD., priority 2017, published 2020).

System: HLA-A2402 transgenic mouse
Experiment: Evaluation of CTL inducing ability in vivo in HLA-A2402 transgenic mouse (IFNγ ELISPOT assay of splenocytes)
Settings: intradermal emulsion with Montanide ISA 51 VG, tail base, two sites, splenocytes one week after administration stimulated with peptide of SEQ ID NO: 4 at 10 μg/ml, FIG. 1
Procedure: The solution was diluted with water for injection to a concentration of 5.0 mg/mL, and then converted to an emulsion by addition of an equal volume of Montanide ISA 51 VG. […] One week after the administration, the mice were sacrificed with CO2 gas. Splenocytes were harvested from spleens removed from the mice. […] In particular, an ELISPOT plate was treated with an anti-mouse-IFNγ antibody on the day before preparation of the splenocyte samples. On the next day, the plate was blocked by treatment with an RPMI 1640 medium with 10% FBS. […] For in vitro stimulation of the cells, the peptide of SEQ ID NO: 4 was dissolved in DMSO at a concentration of 40 mg/ml, diluted with RPMI 1640 with 10% FBS to 40 μg/ml, and added to the splenocyte-containing wells at a final concentration of 10 μg/ml. […] Then, after removal of the culture medium from the wells, the ELISPOT plate was subjected to treatment for cell staining in accordance with the manufacturer's protocol. Stained spots were counted on ImmunoSpot Analyzer (C.T.L.).

Sequence: CYTWNQMNL [peptide of SEQ ID NO: 4, HLA-A2402-restricted WT1 peptide]
- induction of CTLs responsive to the peptide of SEQ ID NO: 4 (IFNγ-producing splenocytes): induced CTLs responsive to the peptide of SEQ ID NO: 4
